Reference: publication PMC4676015, “Variant fatty acid-like molecules Conjugation, novel approaches for extending the stability of therapeutic peptides” (Scientific Reports, 2015)

What was measured:
[1] = cited from earlier work
DPP IV enzyme = target: T1, DPP IV enzyme (Homo sapiens, UniProt P27487); experiment: Stability against DPP IV proteolysis with or without HSA; format: in vitro ADME; details: for degradation in DPP IV proteolysis compared with wild-type GLP-1, within 24 h / detectability of full-length peptide at 24 h: DPP IV 0.1 mg/ml, peptide 1 mg/ml; for degradation in DPP IV proteolysis compared with wild-type GLP-1, within 24 h: 25 mM potassium phosphate, 25 mM KCl, 5 mM MgCl2, pH 7.0, 2% HSA; for detectability of full-length peptide at 24 h: pH 7.0, in the presence of human serum albumin (2%)
T1 construct: purchased Sigma-Aldrich
T1 sequence (P27487 whole entry, species assumed): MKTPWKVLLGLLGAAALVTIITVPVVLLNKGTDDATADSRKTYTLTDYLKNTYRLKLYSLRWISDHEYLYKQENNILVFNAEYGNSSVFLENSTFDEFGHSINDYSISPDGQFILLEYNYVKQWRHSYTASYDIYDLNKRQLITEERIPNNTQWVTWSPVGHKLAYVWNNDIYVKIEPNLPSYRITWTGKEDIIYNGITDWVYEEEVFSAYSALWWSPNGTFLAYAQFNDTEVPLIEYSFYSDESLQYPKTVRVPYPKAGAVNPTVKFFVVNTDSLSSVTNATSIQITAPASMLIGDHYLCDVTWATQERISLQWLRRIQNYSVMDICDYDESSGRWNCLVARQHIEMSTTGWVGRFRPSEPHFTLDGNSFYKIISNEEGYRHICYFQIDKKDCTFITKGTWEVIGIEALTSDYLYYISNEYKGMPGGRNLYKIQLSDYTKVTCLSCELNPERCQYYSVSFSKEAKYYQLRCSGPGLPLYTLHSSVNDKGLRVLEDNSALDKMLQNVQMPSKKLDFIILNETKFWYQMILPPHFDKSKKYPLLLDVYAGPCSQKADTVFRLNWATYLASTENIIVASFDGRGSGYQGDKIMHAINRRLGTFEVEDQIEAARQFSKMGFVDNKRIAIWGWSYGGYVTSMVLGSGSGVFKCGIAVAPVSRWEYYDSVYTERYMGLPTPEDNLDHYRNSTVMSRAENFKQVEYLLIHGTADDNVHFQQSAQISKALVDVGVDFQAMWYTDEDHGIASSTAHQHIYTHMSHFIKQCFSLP
Protocol: DPP IV enzyme (0.1 mg/ml) was dissolved in 25 mM potassium phosphate buffer containing 25 mM potassium chloride and 5 mM magnesium chloride, pH 7.0.

GLP-1 receptor (GLP-1R) = target: T2, GLP-1 receptor (GLP-1R) (Rattus norvegicus, UniProt P32301); experiment: GLP-1 receptor binding assay (cellular ELISA)
T2 construct: endogenous in cells; host or cells: rat INS-1 cells
T2 sequence (P32301 22-463): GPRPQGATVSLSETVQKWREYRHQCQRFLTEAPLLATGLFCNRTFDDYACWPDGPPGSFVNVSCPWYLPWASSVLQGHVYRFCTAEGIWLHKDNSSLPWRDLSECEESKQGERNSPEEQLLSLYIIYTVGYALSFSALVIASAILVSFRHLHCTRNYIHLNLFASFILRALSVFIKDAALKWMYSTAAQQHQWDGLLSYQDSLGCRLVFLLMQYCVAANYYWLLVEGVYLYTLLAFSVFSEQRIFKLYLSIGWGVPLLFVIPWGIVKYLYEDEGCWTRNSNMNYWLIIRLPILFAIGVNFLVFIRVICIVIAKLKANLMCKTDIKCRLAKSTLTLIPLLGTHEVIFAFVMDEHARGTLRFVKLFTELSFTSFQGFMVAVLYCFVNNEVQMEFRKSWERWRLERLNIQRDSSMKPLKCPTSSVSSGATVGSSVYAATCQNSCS
Protocol: Cells were rinsed with PBS and fixed with 4% paraformaldehyde (Thermo Scientific) for 10 min at room temperature and quenched for 5 min with 2% glycine in PBS, pH 7.5. […] After a 2 h incubation at 37 °C in a final volume of 100 μl, the excess peptides were washed, and the cells were blocked with 5% BSA (BD Biosciences). […] Colorimetric changes were analyzed by reading the absorbance at 450 nm in a SpectraMax M5 (Molecular Device) microplate reader. The peptide concentration was plotted against UV absorbance, and the Kd was calculated using Origin 7.0 software.

[2] = Blood retention time measurement; details: 500 μg/kg s.c., Wistar rats, n = 5, GLP-1 (7–37) ELISA
[3] = DPP IV proteolysis solution, 37 °C, GLP-1 (7–37) ELISA, P < 0.01

Row | Compound | degradation in DPP IV proteolysis compared with wild-type GLP-1, within 24 h (DPP IV enzyme; 37 °C, GLP-1 (7–37) ELISA) | detectability of full-length peptide at 24 h (DPP IV enzyme; 37 °C, GLP-1 (7–37) ELISA) | Kd (GLP-1 receptor (GLP-1R)) [nM] | AUCGLP-1(7–37) in proteolysis solution compared to native GLP-1 (DPP IV enzyme; [3]) | AUC0–24 h, amount of undigested GLP-1 fragments compared with wild-type GLP-1 (DPP IV enzyme; DPP IV proteolysis solution, 37 °C, 0-24 h, GLP-1 (7–37) ELISA, P < 0.01) | degradation rate against DPP IV compared with compounds 6 and 21, respectively (DPP IV enzyme; DPP IV proteolysis, same carbon chain length without free carboxyl group as comparator) | increase of circulating amount (AUC GLP-1 (7-37)) compared with native GLP-1 ([2]; 0.5-96 h) [fold] | blood retention / serum level behaviour [2] | stability (half-life) of native GLP-1 ([1]; degradation by DPP-IV, reference not given) [min] | renal clearance ([1]; in vivo)
1 | CC[C@H](C)[C@H](NC(=O)[C@H](Cc1ccccc1)NC(=O)[C@H](CCC(=O)O)NC(=O)[C@H](CCCCN)NC(=O)[C@H](C)NC(=O)[C@H](C)NC(=O)[C@H](CCC(N)=O)NC(=O)CNC(=O)[C@H](CCC(=O)O)NC(=O)[C@H](CC(C)C)NC(=O)[C@H](Cc1ccc(O)cc1)NC(=O)[C@H](CO)NC(=O)[C@H](CO)NC(=O)[C@@H](NC(=O)[C@H](CC(=O)O)NC(=O)[C@H](CO)NC(=O)[C@@H](NC(=O)[C@H](Cc1ccccc1)NC(=O)[C@@H](NC(=O)CNC(=O)[C@H](CCC(=O)O)NC(=O)[C@H](C)NC(=O)[C@@H](N)Cc1c[nH]cn1)[C@@H](C)O)[C@@H](C)O)C(C)C)C(=O)N[C@@H](C)C(=O)N[C@@H](Cc1c[nH]c2ccccc12)C(=O)N[C@@H](CC(C)C)C(=O)N[C@H](C(=O)N[C@@H](CCCCN)C(=O)NCC(=O)N[C@@H](CCCN=C(N)N)C(=O)NCC(=O)O)C(C)C [GLP-1, glucagon-like peptide-1] |  |  |  |  |  |  |  |  | 3 to 5 | less than 10 min
2 | CCCCCCCCCCCCNC(=O)CC[C@H](NC(=O)[C@H](CCCCN)NC(=O)[C@H](C)NC(=O)[C@H](C)NC(=O)[C@H](CCC(N)=O)NC(=O)CNC(=O)[C@H](CCC(=O)O)NC(=O)[C@H](CC(C)C)NC(=O)[C@H](Cc1ccc(O)cc1)NC(=O)[C@H](CO)NC(=O)[C@H](CO)NC(=O)[C@@H](NC(=O)[C@H](CC(=O)O)NC(=O)[C@H](CO)NC(=O)[C@@H](NC(=O)[C@H](Cc1ccccc1)NC(=O)[C@@H](NC(=O)CNC(=O)[C@H](CCC(=O)O)NC(=O)[C@H](C)NC(=O)[C@@H](N)Cc1c[nH]cn1)[C@@H](C)O)[C@@H](C)O)C(C)C)C(=O)N[C@@H](Cc1ccccc1)C(=O)N[C@H](C(=O)N[C@@H](C)C(=O)N[C@@H](Cc1c[nH]c2ccccc12)C(=O)N[C@@H](CC(C)C)C(=O)N[C@H](C(=O)N[C@@H](CCCCN)C(=O)NCC(=O)N[C@@H](CCCNC(=N)N)C(=O)NCC(=O)O)C(C)C)[C@@H](C)CC [compound 17] | slower degradation rates | still detectable at 24 h | 18.7 ± 2.13 |  |  |  |  |  |  | 
3 | CCCCCCCCCCCCCCCCNC(=O)CC[C@H](NC(=O)[C@H](CCCCN)NC(=O)[C@H](C)NC(=O)[C@H](C)NC(=O)[C@H](CCC(N)=O)NC(=O)CNC(=O)[C@H](CCC(=O)O)NC(=O)[C@H](CC(C)C)NC(=O)[C@H](Cc1ccc(O)cc1)NC(=O)[C@H](CO)NC(=O)[C@H](CO)NC(=O)[C@@H](NC(=O)[C@H](CC(=O)O)NC(=O)[C@H](CO)NC(=O)[C@@H](NC(=O)[C@H](Cc1ccccc1)NC(=O)[C@@H](NC(=O)CNC(=O)[C@H](CCC(=O)O)NC(=O)[C@H](C)NC(=O)[C@@H](N)Cc1c[nH]cn1)[C@@H](C)O)[C@@H](C)O)C(C)C)C(=O)N[C@@H](Cc1ccccc1)C(=O)N[C@H](C(=O)N[C@@H](C)C(=O)N[C@@H](Cc1c[nH]c2ccccc12)C(=O)N[C@@H](CC(C)C)C(=O)N[C@H](C(=O)N[C@@H](CCCCN)C(=O)NCC(=O)N[C@@H](CCCNC(=N)N)C(=O)NCC(=O)O)C(C)C)[C@@H](C)CC [compound 18] | slower degradation rates | still detectable at 24 h | 16.5 ± 2.17 |  |  |  |  |  |  | 
4 | CC[C@H](C)[C@H](NC(=O)[C@H](Cc1ccccc1)NC(=O)[C@H](CCC(=O)O)NC(=O)[C@H](CCCCN)NC(=O)[C@H](C)NC(=O)[C@H](C)NC(=O)[C@H](CCC(N)=O)NC(=O)CNC(=O)[C@H](CCC(=O)NCCCCCCCCCCCC(=O)O)NC(=O)[C@H](CC(C)C)NC(=O)[C@H](Cc1ccc(O)cc1)NC(=O)[C@H](CO)NC(=O)[C@H](CO)NC(=O)[C@@H](NC(=O)[C@H](CC(=O)O)NC(=O)[C@H](CO)NC(=O)[C@@H](NC(=O)[C@H](Cc1ccccc1)NC(=O)[C@@H](NC(=O)CNC(=O)[C@H](CCC(=O)O)NC(=O)[C@H](C)NC(=O)[C@@H](N)Cc1c[nH]cn1)[C@@H](C)O)[C@@H](C)O)C(C)C)C(=O)N[C@@H](C)C(=O)N[C@@H](Cc1c[nH]c2ccccc12)C(=O)N[C@@H](CC(C)C)C(=O)N[C@H](C(=O)N[C@@H](CCCCN)C(=O)NCC(=O)N[C@@H](CCCNC(=N)N)C(=O)NCC(=O)O)C(C)C [compound 23] |  | still detectable at 24 h | 24.3 ± 1.96 | significantly increased |  |  |  |  |  | 

The next lines start with results.

Row | degradation in DPP IV proteolysis compared with wild-type GLP-1, within 24 h (DPP IV enzyme; 37 °C, GLP-1 (7–37) ELISA) | detectability of full-length peptide at 24 h (DPP IV enzyme; 37 °C, GLP-1 (7–37) ELISA) | Kd (GLP-1 receptor (GLP-1R)) [nM] | AUCGLP-1(7–37) in proteolysis solution compared to native GLP-1 (DPP IV enzyme; [3]) | AUC0–24 h, amount of undigested GLP-1 fragments compared with wild-type GLP-1 (DPP IV enzyme; DPP IV proteolysis solution, 37 °C, 0-24 h, GLP-1 (7–37) ELISA, P < 0.01) | degradation rate against DPP IV compared with compounds 6 and 21, respectively (DPP IV enzyme; DPP IV proteolysis, same carbon chain length without free carboxyl group as comparator) | increase of circulating amount (AUC GLP-1 (7-37)) compared with native GLP-1 ([2]; 0.5-96 h) [fold] | blood retention / serum level behaviour [2] | Compound | stability (half-life) of native GLP-1 ([1]; degradation by DPP-IV, reference not given) [min] | renal clearance ([1]; in vivo)
5 |  | still detectable at 24 h | 17.5 ± 2.75 | significantly increased |  |  |  |  | CCCCCCCCCCCCCCCCNC(=O)C[C@H](NC(=O)[C@@H](NC(=O)[C@H](CC(C)C)NC(=O)[C@H](Cc1c[nH]c2ccccc12)NC(=O)[C@H](C)NC(=O)[C@@H](NC(=O)[C@H](Cc1ccccc1)NC(=O)[C@H](CCC(=O)O)NC(=O)[C@H](CCCCN)NC(=O)[C@H](C)NC(=O)[C@H](C)NC(=O)[C@H](CCC(N)=O)NC(=O)CNC(=O)[C@H](CCC(=O)O)NC(=O)[C@H](CC(C)C)NC(=O)[C@H](Cc1ccc(O)cc1)NC(=O)[C@H](CO)NC(=O)[C@H](CO)NC(=O)[C@@H](NC(=O)[C@H](CC(=O)O)NC(=O)[C@H](CO)NC(=O)[C@@H](NC(=O)[C@H](Cc1ccccc1)NC(=O)[C@@H](NC(=O)CNC(=O)[C@H](CCC(=O)O)NC(=O)[C@H](C)NC(=O)[C@@H](N)Cc1c[nH]cn1)[C@@H](C)O)[C@@H](C)O)C(C)C)[C@@H](C)CC)C(C)C)C(=O)NCC(=O)N[C@@H](CCCNC(=N)N)C(=O)NCC(=O)O [compound 21] |  | 
6 |  | still detectable at 24 h | 21.1 ± 2.34 | significantly increased | approximately 3.5 fold | significantly lower degradation rates | 2.6 | extended the stabilities in vivo | CC[C@H](C)[C@H](NC(=O)[C@H](Cc1ccccc1)NC(=O)[C@H](CCC(=O)O)NC(=O)[C@H](CCCCN)NC(=O)[C@H](C)NC(=O)[C@H](C)NC(=O)[C@H](CCC(N)=O)NC(=O)CNC(=O)[C@H](CCC(=O)O)NC(=O)[C@H](CC(C)C)NC(=O)[C@H](Cc1ccc(O)cc1)NC(=O)[C@H](CO)NC(=O)[C@H](CO)NC(=O)[C@@H](NC(=O)[C@H](CC(=O)O)NC(=O)[C@H](CO)NC(=O)[C@@H](NC(=O)[C@H](Cc1ccccc1)NC(=O)[C@@H](NC(=O)CNC(=O)[C@H](CCC(=O)O)NC(=O)[C@H](C)NC(=O)[C@@H](N)Cc1c[nH]cn1)[C@@H](C)O)[C@@H](C)O)C(C)C)C(=O)N[C@@H](C)C(=O)N[C@@H](Cc1c[nH]c2ccccc12)C(=O)N[C@@H](CC(C)C)C(=O)N[C@H](C(=O)N[C@@H](CC(=O)NCCCCCCCCCCCC(=O)O)C(=O)NCC(=O)N[C@@H](CCCNC(=N)N)C(=O)NCC(=O)O)C(C)C [compound 22] |  | 
